Experimental data published in the NIST ThermoML archive (doi:10.1021/je900515a).
± gives the expanded uncertainty stated by the source.

Legend:
[1] = Liquid, Pycnometric method
[2] = molar heat capacity at constant pressure; details: Liquid, Thermal relaxation method

C=C(F)C(F)(F)F [2,3,3,3-tetrafluoro-1-propene]
Details | mass density, [1] [kg/m3] | molar heat capacity at constant pressure, [2] [J/K/mol]
310 K, 1000 kPa | 1046.5 ± 4.2 | –
310 K, 2000 kPa | 1056.3 ± 4.2 | 165.36 ± 8
310 K, 3000 kPa | 1065.2 ± 4.3 | 161.94 ± 8
310 K, 4000 kPa | 1072.8 ± 4.3 | 152.82 ± 8
310 K, 5000 kPa | 1080.6 ± 4.3 | 153.96 ± 8
320 K, 2000 kPa | 1013.8 ± 4.1 | 173.34 ± 9.1
320 K, 3000 kPa | 1025.1 ± 4.1 | 167.64 ± 8
320 K, 4000 kPa | 1035.3 ± 4.2 | 160.8 ± 8
320 K, 5000 kPa | 1044.8 ± 4.2 | 157.38 ± 8
330 K, 2000 kPa | 964.2 ± 3.9 | 185.89 ± 9.1
330 K, 3000 kPa | 979.2 ± 3.9 | 179.05 ± 9.1
330 K, 4000 kPa | 992.7 ± 4 | 168.78 ± 8
330 K, 5000 kPa | 1004.6 ± 4 | 163.08 ± 8
340 K, 2000 kPa | 903 ± 3.6 | 205.27 ± 10
340 K, 3000 kPa | 926.7 ± 3.7 | 187.03 ± 9.1
340 K, 4000 kPa | 945.3 ± 3.8 | 177.9 ± 9.1
340 K, 5000 kPa | 961.3 ± 3.9 | 169.92 ± 8
350 K, 3000 kPa | 861.8 ± 3.5 | 217.82 ± 11
350 K, 4000 kPa | 891.3 ± 3.6 | 196.15 ± 10
350 K, 5000 kPa | 913.1 ± 3.7 | 182.47 ± 9.1
360 K, 3000 kPa | 751.9 ± 3.1 | 297.65 ± 15
360 K, 4000 kPa | 818.5 ± 3.3 | 222.38 ± 11
360 K, 5000 kPa | 853.9 ± 3.4 | 197.29 ± 10
